Laboratory results as given in patent US20150296790A1, “SILICON-CONTAINING COMPOUND AQUEOUS SOLUTION AND ANTIBACTERIAL/ANTIVIRAL AGENT INCLUDING SAID SOLUTION” (JEX CO., LTD., priority 2012, published 2015).

Experiment: Solubility of Silicon-Containing Compound E in aqueous CD solutions (clarity and stability, visual)
Assay type: physicochemical
Set-up: key to Solubility of Compound E: Stability: OK: When the aqueous solutions of the CD and the Silicon-Containing Compound E did not exhibit the conditions such as presence of precipitates and deposits, the solutions were considered as stable; NG: When the aqueous solutions of the CD and the Silicon-Containing Compound E exhibited the conditions such as presence of precipitates and deposits, the solutions were not considered as stable; key to Solubility of Compound E: Clarity: When the aqueous solutions of the CD and the Silicon-Containing Compound E were clear, the solutions were rated as “OK”; When the aqueous solutions of the CD and the Silicon-Containing Compound E were not clear, the solutions were rated as “NG”
Conditions: purified water
Experimental: To determine “Solubility of Compound E” in the tables, the Silicon-Containing Compound E as another solute was added at respective ratios shown in the respective tables (see “Ratio of Compound E” in the tables) to the respective aqueous CD solutions after evaluation of the solubility of CD, and then the mixture was stirred on a shaker to prepare the respective aqueous solutions of the CD and the Silicon-Containing Compound E. Immediately after preparation of the aqueous solutions of the CD and the Silicon-Containing Compound E, the clarity of the aqueous solutions was visually evaluated. When the aqueous solutions of the CD and the Silicon-Containing Compound E were clear, the solutions were rated as “OK”. When the aqueous solutions of the CD and the Silicon-Containing Compound E were not clear, the solutions were rated as “NG”. “Stability” in “Solubility of Compound E” in the tables was determined by allowing the respective aqueous solutions of the CD and the Silicon-Containing Compound E after preparation to stand at ambient temperature for a predetermined period and then visually evaluating the conditions (such as presence of precipitates and deposits) of the solutions.

[1] = β-CD 1 w/w %, Compound E 0.3 w/w %
[2] = β-CD 1 w/w %, Compound E 0.4 w/w %
[3] = β-CD 1 w/w %, Compound E 0.5 w/w %
[4] = β-CD 1 w/w %, Compound E 0.6 w/w %
[5] = β-CD 1 w/w %, Compound E 0.7 w/w %
[6] = β-CD 1 w/w %, Compound E 0.8 w/w %
[7] = β-CD 1 w/w %, Compound E 0.9 w/w %
[8] = β-CD 1 w/w %, Compound E 1 w/w %
[9] = γ-CD 1 w/w %, Compound E 0.1 w/w %
[10] = γ-CD 1 w/w %, Compound E 0.2 w/w %
[11] = γ-CD 1 w/w %, Compound E 0.3 w/w %
[12] = γ-CD 1 w/w %, Compound E 0.4 w/w %
[13] = γ-CD 1 w/w %, Compound E 0.5 w/w %
[14] = γ-CD 1 w/w %, Compound E 0.6 w/w %
[15] = γ-CD 1 w/w %, Compound E 0.7 w/w %
[16] = γ-CD 1 w/w %, Compound E 0.8 w/w %
[17] = γ-CD 1 w/w %, Compound E 0.9 w/w %
[18] = γ-CD 1 w/w %, Compound E 1 w/w %
[19] = γ-CD 3 w/w %, Compound E 0.1 w/w %
[20] = γ-CD 3 w/w %, Compound E 0.2 w/w %
[21] = γ-CD 3 w/w %, Compound E 0.3 w/w %
[22] = γ-CD 3 w/w %, Compound E 0.4 w/w %
[23] = γ-CD 3 w/w %, Compound E 0.5 w/w %
[24] = γ-CD 3 w/w %, Compound E 0.6 w/w %
[25] = γ-CD 3 w/w %, Compound E 0.7 w/w %
[26] = γ-CD 3 w/w %, Compound E 0.8 w/w %
[27] = γ-CD 3 w/w %, Compound E 0.9 w/w %
[28] = γ-CD 3 w/w %, Compound E 1 w/w %
[29] = γ-CD 6 w/w %, Compound E 0.1 w/w %
[30] = γ-CD 6 w/w %, Compound E 0.2 w/w %
[31] = γ-CD 6 w/w %, Compound E 0.3 w/w %
[32] = γ-CD 6 w/w %, Compound E 0.4 w/w %
[33] = γ-CD 6 w/w %, Compound E 0.5 w/w %
[34] = γ-CD 6 w/w %, Compound E 0.6 w/w %
[35] = γ-CD 6 w/w %, Compound E 0.7 w/w %
[36] = γ-CD 6 w/w %, Compound E 0.8 w/w %
[37] = γ-CD 6 w/w %, Compound E 0.9 w/w %
[38] = γ-CD 6 w/w %, Compound E 1 w/w %
[39] = γ-CD 10 w/w %, Compound E 0.1 w/w %
[40] = γ-CD 10 w/w %, Compound E 0.2 w/w %
[41] = γ-CD 10 w/w %, Compound E 0.3 w/w %
[42] = γ-CD 10 w/w %, Compound E 0.4 w/w %
[43] = γ-CD 10 w/w %, Compound E 0.5 w/w %
[44] = γ-CD 10 w/w %, Compound E 0.6 w/w %
[45] = γ-CD 10 w/w %, Compound E 0.7 w/w %
[46] = γ-CD 10 w/w %, Compound E 0.8 w/w %
[47] = γ-CD 10 w/w %, Compound E 0.9 w/w %
[48] = γ-CD 10 w/w %, Compound E 1 w/w %

CCCCCCCCCCCCCCCCCC[N+](C)(C)CCC[Si](OCC)(OCC)OCC.[Cl-] [Compound E, Octadecyl dimethyl(3-triethoxysilylpropyl)ammonium chloride]
OK: Solubility of Compound E: Stability (β-CD 1 w/w %, Compound E 0.2 w/w %) | Solubility of Compound E: Stability [1] | Solubility of Compound E: Stability [2] | Solubility of Compound E: Stability [3] | Solubility of Compound E: Stability [4] | Solubility of Compound E: Stability [5] | Solubility of Compound E: Stability [6] | Solubility of Compound E: Stability [7] | Solubility of Compound E: Stability [8] | Solubility of Compound E: Clarity [9] | Solubility of Compound E: Stability [9] | Solubility of Compound E: Clarity [10] | Solubility of Compound E: Stability [10] | Solubility of Compound E: Clarity [11] | Solubility of Compound E: Stability [11] | Solubility of Compound E: Clarity [12] | Solubility of Compound E: Stability [12] | Solubility of Compound E: Stability [13] | Solubility of Compound E: Stability [14] | Solubility of Compound E: Stability [15] | Solubility of Compound E: Stability [16] | Solubility of Compound E: Stability [17] | Solubility of Compound E: Stability [18] | Solubility of Compound E: Stability [19] | Solubility of Compound E: Stability [20] | Solubility of Compound E: Stability [21] | Solubility of Compound E: Stability [22] | Solubility of Compound E: Stability [23] | Solubility of Compound E: Stability [24] | Solubility of Compound E: Stability [25] | Solubility of Compound E: Stability [26] | Solubility of Compound E: Stability [27] | Solubility of Compound E: Stability [28] | Solubility of Compound E: Stability [29] | Solubility of Compound E: Stability [30] | Solubility of Compound E: Stability [31] | Solubility of Compound E: Stability [32] | Solubility of Compound E: Stability [33] | Solubility of Compound E: Stability [34] | Solubility of Compound E: Stability [35] | Solubility of Compound E: Stability [36] | Solubility of Compound E: Stability [37] | Solubility of Compound E: Stability [38]
NG: Solubility of Compound E: Clarity [1] | Solubility of Compound E: Clarity [2] | Solubility of Compound E: Clarity [3] | Solubility of Compound E: Clarity [4] | Solubility of Compound E: Clarity [5] | Solubility of Compound E: Clarity [6] | Solubility of Compound E: Clarity [7] | Solubility of Compound E: Clarity [8] | Solubility of Compound E: Clarity [13] | Solubility of Compound E: Clarity [14] | Solubility of Compound E: Clarity [15] | Solubility of Compound E: Clarity [16] | Solubility of Compound E: Clarity [17] | Solubility of Compound E: Clarity [18] | Solubility of Compound E: Clarity [19] | Solubility of Compound E: Clarity [20] | Solubility of Compound E: Clarity [21] | Solubility of Compound E: Clarity [22] | Solubility of Compound E: Clarity [23] | Solubility of Compound E: Clarity [24] | Solubility of Compound E: Clarity [25] | Solubility of Compound E: Clarity [26] | Solubility of Compound E: Clarity [27] | Solubility of Compound E: Clarity [28] | Solubility of Compound E: Clarity [29] | Solubility of Compound E: Clarity [30] | Solubility of Compound E: Clarity [31] | Solubility of Compound E: Clarity [32] | Solubility of Compound E: Clarity [33] | Solubility of Compound E: Clarity [34] | Solubility of Compound E: Clarity [35] | Solubility of Compound E: Clarity [36] | Solubility of Compound E: Clarity [37] | Solubility of Compound E: Clarity [38] | Solubility of Compound E: Clarity [39] | Solubility of Compound E: Stability [39] | Solubility of Compound E: Clarity [40] | Solubility of Compound E: Stability [40] | Solubility of Compound E: Clarity [41] | Solubility of Compound E: Stability [41] | Solubility of Compound E: Clarity [42] | Solubility of Compound E: Stability [42] | Solubility of Compound E: Clarity [43] | Solubility of Compound E: Stability [43] | Solubility of Compound E: Clarity [44] | Solubility of Compound E: Stability [44] | Solubility of Compound E: Clarity [45] | Solubility of Compound E: Stability [45] | Solubility of Compound E: Clarity [46] | Solubility of Compound E: Stability [46] | Solubility of Compound E: Clarity [47] | Solubility of Compound E: Stability [47] | Solubility of Compound E: Clarity [48] | Solubility of Compound E: Stability [48]
